Entries after “also recorded” stand apart in the source; their conditions may differ. Read-outs that look alike come from different tables or passages of the source.
What was measured:
Assay type in all cases: cell-based
[1] = tested on: MDAMB231 (breast cancer) cells; test: CellTiter-Glo cell viability assay, MDAMB231 cells; details: Homo sapiens, read-out: MDAMB231 cell viability after 48 hours of treatment
Excerpt: (§1) To determine the ability of Compound Dix-905 (also referred as Compound 905) to kill cancer cells, we performed a cell viability assay via CellTiter-Glo kit (Promega) using various cell lines. The kit measures the ATP levels via an enzymatic Luciferase assay. Viable cells, having normal metabolic rates and producing normal levels of ATP, will is have a high turnover of Luciferase substrates, which requires ATP for the enzymatic reaction and emits luminescent signals. By contrast, dying cells will have lower outcome of luminescent signals since their metabolic functions are diminished. The emitted luminescent signals will then be captured by a luminometer.
(§2) To perform the viability assay, small cell lung cancer cells (ATCC catalog No. H146), breast cancer cells (ATCC catalog No. MDAMB231) or colon cancer cells (ATCC catalog No. HCT116) were seeded in 96 wells and treated via Compound Dix-905 and other anti-cancer drugs for a time period of 24, 48, 72 hours. At each respective time point, cells were mixed with Cell Titer Glow reagents for 1 h and evaluated for luminescent signals.
In the “CPT” group, the MDAMB231 (breast cancer) cells were treated with CPT (dissolved in DMSO) in 4 concentrations (0, 0.1, 1.0, 10 μM, respectively) for 48 hours. In the Dix-902, Dix-904 and Dix-906 groups, MDAMB231 (breast cancer) cells were treated respectively with the corresponding compounds (dissolved in a saline solution) in 4 concentrations (0, 0.1, 1.0, 10 μM, respectively) for 48 hours.

[2] = tested on: HCT116 (colon cancer) cells; test: CellTiter-Glo cell viability assay, HCT116 cells; details: for viability at 0.1 µM / viability at 1 µM / viability at 10 µM: Homo sapiens, HCT-116, 48 hours, read-out: HCT116 cell viability after 48 hours of treatment; for cell killing / dose-dependent cell death in HCT116 cells, result in words: compared with CPT, 5-FU, Etoposide (FIGS. 7-8, Table 5)
Excerpt: as §1, §2
In the “CPT” group, the is HCT116 cells were treated with CPT (dissolved in DMSO) in 4 concentrations (0, 0.1, 1.0, 10 μM, respectively) for 48 hours. In the Dix-902, Dix-904 and Dix-906 groups, HCT116 cells were treated respectively with the corresponding compounds (dissolved in a saline solution) in 4 concentrations (0, 0.1, 1.0, 10 μM, respectively) for 48 hours.

[3] = tested on: H146 (small cell lung cancer) cells; test: CellTiter-Glo cell viability assay, H146 cells; details: for viability at 0.1 µM / viability at 1 µM / viability at 10 µM: Homo sapiens, read-out: H146 cell viability after 48 hours of treatment; for cell killing / dose-dependent cell death in H146 cells, result in words: compared with CPT, floxuridine, etoposide (FIGS. 4-5, Table 3)
Excerpt: as §1, §2
In the “CPT” group, the H146 (small cell lung cancer) cells were treated with CPT (dissolved in DMSO) in 4 concentrations (0, 0.1, 1.0, 10 μM, respectively) for 48 hours; In the Dix-902, Dix-904 and Dix-906 groups, H146 (small cell lung cancer) cells were treated respectively with the corresponding compounds (dissolved in a saline solution) in 4 concentrations (0, 0.1, 1.0, 10 μM, respectively) for 48 hours.

[4] = tested on: Caspase 3/7 in H146 cells; test: Caspase-Glo 3/7 caspase activation assay, H146 cells; details: FIG. 6
Description: (§3) For caspase activation, similar assays could be performed using the Caspase-Glo 3/7kit from Promega after cells were treated with respective agents for various time points. The mechanism of Caspase 3/7 Glow assay is by using Caspase 3/7 substrate fused with Luciferase substrate, which could be cleaved by activated Caspase 3/7. The released Luciferase substrate then undergoes an enzymatic reaction and emits luminescent signals. In contrast to the viability assay, the limiting step for this assay is caspase activation. Dying cells bearing the activated Casapses will have a high readout of luminescent signals in a luminometer.

H1693 cells = test: Cell viability (cell killing) assay, H1693 cells; details: compared with CPT, floxuridine, etoposide (FIGS. 1-2)
[5] = tested on: Caspase 3/7 in H1693 cells; test: Caspase-Glo 3/7 caspase activation assay, H1693 cells; details: FIG. 3
Description: as §3

| Structure (SMILES) | viability at 0.1 µM ([1]; MDA-MB-231, 0.1 μM, 48 hours) | viability at 1 µM ([1]; MDA-MB-231, 1.0 μM, 48 hours) | viability at 10 µM ([1]; MDA-MB-231, 10 μM, 48 hours) | viability at 0.1 µM [2] | viability at 1 µM [2] | viability at 10 µM [2] | cell killing / dose-dependent cell death in HCT116 cells, result in words [2] | viability at 0.1 µM ([3]; NCI-H146, 0.1 μM, 48 hours) | viability at 1 µM ([3]; NCI-H146, 1.0 μM, 48 hours) | viability at 10 µM ([3]; NCI-H146, 10 μM, 48 hours) | cell killing / dose-dependent cell death in H146 cells, result in words [3] | viability at 0.1 µM ([1]; MDA-MB-231, 48 h) | viability at 1 µM ([1]; MDA-MB-231, 48 h) | viability at 10 µM ([1]; MDA-MB-231, 48 h) | viability at 0.1 µM ([3]; NCI-H146, 48 h) | viability at 1 µM ([3]; NCI-H146, 48 h) | viability at 10 µM ([3]; NCI-H146, 48 h) | also measured |
| --- | --- | --- | --- | --- | --- | --- | --- | --- | --- | --- | --- | --- | --- | --- | --- | --- | --- | --- |
| CC[C@@]1(O)C(=O)OCc2c1cc1n(c2=O)Cc2cc3ccccc3nc2-1 [CPT, Camptothecin] | 13% | 5% | 3% | 96% | 76% | 11% | Dose-dependent cell death | 65% | 51% | 24% | – | – | – | – | – | – | – | – |
| CC[C@@]1(OP(=O)(O)OC[C@H]2O[C@@H](n3cc(F)c(=O)[nH]c3=O)C[C@@H]2O)C(=O)OCc2c1cc1n(c2=O)Cc2cc3ccccc3nc2-1 [Dix-905] | – | – | – | – | – | – | Dose-dependent cell death | – | – | – | cell killing response in H146 better than that of CPT; also recorded: more effective cell killing in H146 than that of CPT, floxuridine, and etoposide | – | – | – | – | – | – | cell death in H146 via Caspase activation (apoptotic pathway) [4]: time- and dose-dependent cell death; cell killing / dose-dependent cell death in HCT116 cells, result in words ([2]; listed as DIX-905): more effective in cell killing than that of CPT, 5-FU and Etoposide; cell killing in H1693 cells, result in words (H1693 cells): cell killing response better than that of CPT; also recorded: more effective cell killing in H1693 than that of CPT, floxuridine, and etoposide; cell death in H1693 via Caspase activation (apoptotic pathway) [5]: time- and dose-dependent cell death |
| CC[C@@]1(OP(=O)(O)OC[C@H]2O[C@@H](n3cnc4c(N)ncnc43)C[C@@H]2O)C(=O)OCc2c1cc1n(c2=O)Cc2cc3ccccc3nc2-1 [Dix-904] | – | – | – | 95% | 70% | 10% | higher than that CPT | – | – | – | similarly to or even slightly better than that of CPT | 13% | 3% | 1% | 67% | 44% | 19% | – |
| CC[C@@]1(OP(=O)(O)OC[C@H]2O[C@@H](n3ccc(N)nc3=O)C[C@@H]2O)C(=O)OCc2c1cc1n(c2=O)Cc2cc3ccccc3nc2-1 [Dix-902] | – | – | – | 87% | 68% | 9% | higher than that CPT | – | – | – | similarly to or even slightly better than that of CPT | 15% | 4% | 2% | 66% | 43% | 20% | – |
| CC[C@@]1(OP(=O)(O)OC[C@H]2O[C@@H](n3cc(C)c(=O)[nH]c3=O)C[C@@H]2O)C(=O)OCc2c1cc1n(c2=O)Cc2cc3ccccc3nc2-1 [Dix-906] | 14% | 4% | 3% | 90% | 71% | 8% | higher than that CPT | 64% | 45% | 21% | similarly to or even slightly better than that of CPT | – | – | – | – | – | – | – |

From patent publication US9334299B2, “Water-soluble camptothecin derivative, pharmaceutical composition and use thereof” (Hunan Fangshenghuamei Medical Tech. Co. Ltd., priority 2011, dated 2016)
